Data: patent US10766885B1, “Silibinin 3,3′-thiodipropionic acid ester with hepatoprotective activity and a method of preparing the same” (SHAANXI UNIVERSITY OF SCIENCE AND TECHNOLOGY, priority 2020, dated 2020)

Legend:
[1] = test system: Mice with Alcoholic Liver Injury; experiment: Protective effect on alcoholic liver injury in mice (serum ALT, AST, TG); assay type: in vivo; conditions: ethanol 3 g/kg/day, after 25 days
Protocol: The compound of formula (I) was prepared by the method of Example 7. In order to study its protective effect on alcoholic liver injury in mice, the following animal model was designed.
Three-week-old 30-35 g SPF male mice were randomly divided into normal control group, model group, low-dose group, high-dose group and tiopronin positive control group after adaptive feeding for 3 days. The normal control group and model group were fed with basic feed every day; low dose group and high dose group were fed with basic diet every day and were given the compound of formula (I) of 10 mg/kg/day and 50 mg/kg/day, respectively; tiopronin positive control group was fed with basic feed and 50 mg/kg/day tiopronin. Ethanol 3 g/kg/day (0.01 mL/g) was given to the model group, low dose group, high dose group and tiopronin positive control group. The normal control group was given distilled water of the same volume. After 25 days, fasting for 2 hours after the last administration, glutamic pyruvic transaminase (ALT), glutamic oxaloacetic transaminase (AST) and triglyceride (TG) were measured in serum by decapitation.

[2] = DPPH radical scavenging activity assay; assay type: biochemical; conditions: for DPPH Clearance rate: n = 3
Source text: 2,2-Diphenyl-1-picryl hydrazyl (DPPH) is an organic compound composed of a stable organic radical. In the DPPH molecule, due to the presence of multiple electron-withdrawing —NO2 and large π bonds of the benzene ring, nitrogen free radical is stabilized. Its methanol solution is purple and has a maximum absorption peak at 517 nm. After the addition of an antioxidant, DPPH captures an electron to be paired with the free electron, and the purple fades and turns into a yellow substance. The absorption at 517 nm disappears, and the degree of fading is quantitatively related to the number of electrons it captures. Based on this principle, a spectrophotometer is used to detect the change of the absorbance of the DPPH radical and the sample solution, and the ability of the sample to provide hydrogen atoms and scavenge free radicals can be measured.
Preparation of DPPH solution: measuring exact amount of 2,2-diphenyl-1-picryl hydrazyl (DPPH) and dissolving in toluene to prepare a 0.2 mmol/L DPPH solution, stored at 0° C. in dark.
Preparation of test solution: Vc (vitamin C, positive control), compound of formula (I) (sample), silibinin (control) and 3,3′-thiodipropionic acid (control). The sample solution was subjected to gradient dilution with toluene, and three sets of controls were separately dissolved in a test tube with a certain amount of toluene to prepare the same concentration gradient as the sample.
Sample liquid absorbance measurement: Take 2 mL of sample solution (Table 2 Vc, B, C), add 2 mL of DPPH solution with concentration of 2×10^−4 mol/L, mix and react in the dark at room temperature for 30 min, adjust to zero with toluene, and measure at 517 nm. The absorbance Ai was simultaneously measured for the absorbance Aj of 2 mL of toluene mixed with 2 mL of the sample solution and the absorbance Ao of 2 mL of DPPH solution mixed with 2 mL of toluene (the experimental results are shown in Table 3).
Clearance calculation: clearance rate (%)=[1−(Ai−Aj)/Ao]*100%

Row | SMILES | ALT ([1]; 50 mg/kg/day) | AST ([1]; 50 mg/kg/day) | TG ([1]; 50 mg/kg/day) | DPPH Clearance rate ([2]; 1.76 ppm) | DPPH Clearance rate ([2]; 8.80 ppm) | DPPH Clearance rate ([2]; 21.12 ppm) | DPPH Clearance rate ([2]; 42.24 ppm) | DPPH Clearance rate ([2]; 79.20 ppm) | DPPH Clearance rate ([2]; 112.64 ppm) | DPPH Clearance rate ([2]; 281.60 ppm) | DPPH Clearance rate ([2]; 492.80 ppm) | DPPH Clearance rate ([2]; 792.00 ppm) | DPPH Clearance rate ([2]; 915.20 ppm) | ALT ([1]; 10 mg/kg/day) | AST ([1]; 10 mg/kg/day) | TG ([1]; 10 mg/kg/day) | scavenging ability compared with the positive control Vc group [2] | scavenging ability to scavenge DPPH free radicals compared with silibinin (B) and 3,3′-thiodipropionic acid (C) alone ([2]; at the same concentration) | highest scavenging rate of DPPH radical ([2]; in the determined concentration range)
1 | CC(S)C(=O)NCC(=O)O (stereo not shown) [Tiopronin, tiopronin] | 63.45 ± 9.53 U/L | 143.32 ± 15.46 U/L | 1.336 ± 0.62 mmol/L |  |  |  |  |  |  |  |  |  |  |  |  |  |  |  | 
2 | COc1cc(C2Oc3cc([C@H]4Oc5cc(O)cc(O)c5C(=O)[C@@H]4O)ccc3OC2CO)ccc1O (stereo partly shown) [B, Silibinin] |  |  |  | 8.42% | 9.16% | 22.43% | 27.10% | 39.53% | 45.87% | 60.25% | 65.88% | 69.85% | 72.76% |  |  |  |  |  | 
3 | COc1cc(C2Oc3cc([C@H]4Oc5cc(O)cc(O)c5C(=O)[C@@H]4O)ccc3OC2COC(=O)CCSCCC(=O)OCC2Oc3ccc([C@H]4Oc5cc(O)cc(O)c5C(=O)[C@@H]4O)cc3OC2c2ccc(O)c(OC)c2)ccc1O (stereo partly drawn) [Compound of Formula (I), bis((3-(4-hydroxy-3-methoxyphenyl)-6-((2R,3R)-3,5,7-trihydroxy-4-oxochroman-2-yl)-2,3-dihydrobenzo[b][1,4]dioxin-2-yl)methyl) 3,3′-thiodipropionate] | 56.17 ± 3.45 U/L | 132.56 ± 7.21 U/L | 0.877 ± 0.36 mmol/L | 13.11% | 20.80% | 34.16% | 44.12% | 68.42% | 75.23% | 81.21% | 84.70% | 87.06% | 89.96% | 60.88 ± 9.75 U/L | 138.53 ± 17.85 U/L | 0.973 ± 0.25 mmol/L | slightly weaker | better | 89.96%
4 | O=C(O)CCSCCC(=O)O [C, 3,3′-Thiodipropionic acid] |  |  |  | 6.85% | 8.38% | 17.13% | 22.38% | 39.55% | 43.58% | 52.23% | 59.36% | 64.55% | 68.22% |  |  |  |  |  | 
5 | O=C1O[C@H]([C@@H](O)CO)C(O)=C1O [Vc, vitamin C] |  |  |  | 23.16% | 33.47% | 79.63% | 89.55% | 97.42% | 97.53% | 98.29% | 99.06% | 99.10% | 99.28% |  |  |  |  |  | 
